Test results as given in US6413937B1, “Combinations for use in increasing the potency of a substrate for multidrug resistance related protein” (Dublin City University and Enterprise Ireland, priority 1996, dated 2002).

Key:
[1] = tested on: OAW42-SR cell line; test: miniaturised in vitro colorimetric cell survival assay, LRP overexpressing OAW42-SR; assay type: cell-based, human; details: alone or + Adriamycin 147 ng/ml
Procedure: All the results presented in this Example for the DLKP, A549 and OAW42-SR cell lines were derived using the same miniaturised in vitro calorimetric assay system. On Day 1 of the assay 1000 cells/well/100 μl were plated into 96-well plates. Cells were allowed to attach overnight and cell viability was visually assessed. On Day 2 the two drugs (i.e. NSAID plus chemotherapeutic drug) to be analysed were added onto the cells. The individual drugs were added separately in 50 μl quantities (4× stocks, to take into account the dilution effect of having 200 μl final volume in each well). The drugs were left on the cells for five further days (Day 7) and cell number was determined using the acid phosphatase end-point assay which uses p-nitrophenol phosphate as substrate (Martin, A. and Clynes, M. (1991) In Vitro Dev. Biol., 27A, 183-184). On Day 7 the culture medium was removed from the cells and they were washed once with phosphate buffered saline (PBS). […] After the incubation period 50 μl of 1N NaOH was added to each well to develop the colour. The plates were then read at 405 nm (reference 620 nm) on an ELISA plate-reader. […] All results are the cell survival means ±S.D. from a minimum of three experiments.

[2] = tested on: DLKP-A cell line; test: miniaturised in vitro colorimetric cell survival assay, P-170 overexpressing DLKP-A; assay type: cell-based, human
Procedure: All the results presented in this Example for the DLKP, A549 and OAW42-SR cell lines were derived using the same miniaturised in vitro calorimetric assay system. On Day 1 of the assay 1000 cells/well/100 μl were plated into 96-well plates. Cells were allowed to attach overnight and cell viability was visually assessed. On Day 2 the two drugs (i.e. NSAID plus chemotherapeutic drug) to be analysed were added onto the cells. The individual drugs were added separately in 50 μl quantities (4× stocks, to take into account the dilution effect of having 200 μl final volume in each well). The drugs were left on the cells for five further days (Day 7) and cell number was determined using the acid phosphatase end-point assay which uses p-nitrophenol phosphate as substrate (Martin, A. and Clynes, M. (1991) In Vitro Dev. Biol., 27A, 183-184). On Day 7 the culture medium was removed from the cells and they were washed once with phosphate buffered saline (PBS). After washing, 100 μl of freshly prepared substrate-containing buffer (0.1% Triton X-100 in 0.1M sodium acetate, pH 5.5) was added to each well and the plates were left in an incubator at 37° C. for 2 h. After the incubation period 50 μl of 1N NaOH was added to each well to develop the colour. The plates were then read at 405 nm (reference 620 nm) on an ELISA plate-reader.
In the results given below the % cell survival in the drug-free control is 100%. All results are the cell survival means ±S.D. from a minimum of three experiments.
v) is an example of a positive NSAID plus a positive drug on a P-170 overexpressing cell line: DLKP-A;

Structure (SMILES) | % cell survival ([1]; vi) Indomethacin 0.625 μg/ml) [%] | % cell survival ([1]; vi) Indomethacin 1.25 μg/ml) [%] | % cell survival ([1]; vi) Indomethacin 2.5 μg/ml) [%] | % cell survival ([2]; v) Sulindac 1.5 μg/ml, alone or + Vincristine 1.0 μg/ml) [%] | % cell survival ([2]; v) Sulindac 3 μg/ml, alone or + Vincristine 1.0 μg/ml) [%] | % cell survival ([2]; v) Sulindac alone (concentration not given) or Sulindac 6 μg/ml + Vincristine 1.0 μg/ml) [%]
COc1ccc2c(c1)c(CC(=O)O)c(C)n2C(=O)c1ccc(Cl)cc1 [Indomethacin, indomethacin] | 99.26 ± 3.7 | 97.67 ± 1.3 | 95.60 ± 3.3 |  |  | 
CC1=C(CC(=O)O)c2cc(F)ccc2/C1=C\c1ccc([S+](C)[O-])cc1 (stereo not drawn) [Sulindac, sulindac] |  |  |  | 108.9 ± 8.0 | 86.30 ± 13.7 | 105.7 ± 5.2
